{"source": "patent US11241410B2", "about": "“Method and compound for the treatment of covid-19” (priority 2020, dated 2022)", "key": {"[1]": {"details": "rats, cited from earlier work"}, "[2]": {"details": "cited from earlier work"}, "activated sludge": {"test_system": "activated sludge", "details": "cited from earlier work"}, "[3]": {"test_system": "RF laboratory strain of HIV-1", "experiment": "Antiviral drug assay in CEM-SS cells", "assay_type": "cell-based", "details": "Human immunodeficiency virus 1, CEM-SS, read-out: 50% effective concentration (EC50)"}, "bacterial": {"test_system": "bacterial", "details": "with and without metabolic activation; cited from earlier work"}, "mouse lymphoma cells": {"test_system": "mouse lymphoma cells", "details": "with and without metabolic activation; cited from earlier work"}, "CEM-SS cells": {"test_system": "CEM-SS cells", "experiment": "Drug induced toxicity in CEM-SS cells", "assay_type": "cell-based", "details": "Homo sapiens, read-out: 50% inhibitory concentration (IC50), drug induced toxicity, high-test concentration 100 ug/ml"}, "eye of the rabbit": {"test_system": "eye of the rabbit", "details": "single instillation, listed as DEGD; cited from earlier work"}, "dogs": {"test_system": "dogs", "details": "up to 300 mg/kg/day for 90 days; cited from earlier work"}, "gamma interferon": {"test_system": "gamma interferon", "experiment": "Production of gamma interferon by cells", "assay_type": "cell-based", "details": "compared with positive control PMA-Ionomycin combination", "text": "FIG. 4 illustrates a graph showing production of gamma interferon by cells receiving 90I compared to other drugs, according to an exemplary embodiment of the present general inventive concept.\nReferring to FIG. 4, furthermore, 90I has proven to stimulate the production of gamma interferon (i.e. a dimerized soluble cytokine that is the only member of the type II class of interferons and is a product of human leukocytes and human lymphocytes). More specifically, […] and differentiate into tissue macrophages, such that each of the tissue macrophages may serve as a vehicle for transporting viruses to a variety of tissues. The ability of antiretroviral agents to cross the blood brain barrier is one important consideration, since the brain acts as a sanctuary for viruses as well as a site for disease progression.\nReferring again to FIG. 4, activated CD8+ cells are reported to produce high levels of gamma interferon, which may be involved in the anti-HIV-1 immune responses, contributing to both control of viral spread and concomitant lymphoid follicular lyses. […] This finding may have a far-reaching implication and relevant to interleukin 12 (IL-12) (i.e. a cytokine that is produced by activated antigen-presenting cells, such as dendritic cells and/or macrophages). […]"}, "SARS-CoV-2": {"test_system": "SARS-CoV-2", "experiment": "microbe, parasite or virus in culture", "assay_type": "cell-based"}, "[4]": {"details": "cited from earlier work", "remark": "listed apart in the source"}, "Pimephales promelas": {"test_system": "Pimephales promelas", "details": "acute, 96 h; cited from earlier work"}, "Eisenia foetida": {"test_system": "Eisenia foetida", "details": "cited from earlier work"}, "guinea pigs": {"test_system": "guinea pigs", "details": "intradermal and topical, listed as DEGD; cited from earlier work"}, "[5]": {"details": "Table 10 summary; cited from earlier work"}, "rats [6]": {"test_system": "rats", "details": "cited from earlier work"}, "HIV": {"test_system": "HIV", "experiment": "HIV in vitro tests (Table 1)", "assay_type": "cell-based", "details": "Human immunodeficiency virus 1"}, "MDR-27221 HIV strain": {"test_system": "MDR-27221 HIV strain", "experiment": "microbe, parasite or virus in culture", "assay_type": "cell-based, HIV-1"}, "rats [7]": {"test_system": "rats", "details": "OECD 401; cited from earlier work"}, "Pseudomonas putida": {"test_system": "Pseudomonas putida", "details": "cited from earlier work"}, "rats [8]": {"test_system": "rats", "details": "cited from earlier work", "remark": "listed apart in the source"}, "Daphnia": {"test_system": "Daphnia", "details": "in vivo; cited from earlier work"}, "Vero E6 cells": {"test_system": "Vero E6 cells", "experiment": "Toxicity in Vero E6 cells", "assay_type": "cell-based", "procedure": "Remdesivir was used as a control and verified that the assay was working. The first independent trial (done in quadruplicate) involved using the very first BTS compound sent to us, dissolved at 10 ug/ml in DMSO. Toxicity was observed ˜0.078 ug/ml ([…] based on the molecular weight we were given and the concentration of the drug). The dose curve (log (inhibitor) vs. response (three parameters)) yielded the nicest curve, but only reached a maximum of ˜20% protection. […] Twenty-two 2-fold dilutions of the drug starting from 10 ug/ml (˜323 uM).\nFIG. 18 illustrates a graph showing 90I toxicity in Vero E6 cells, according to an exemplary embodiment of the present general inventive concept."}, "intact rabbit skin": {"test_system": "intact rabbit skin", "details": "semi-occlusive, four hours, listed as DEGD; cited from earlier work"}, "[9]": {"test_system": "ovariectomized adult Spraque-Dawley (CD) rats", "details": "500-2000 mg/kg/day for 7 days, oral gavage, up to maximally tolerated dose; cited from earlier work"}, "rat": {"test_system": "rat", "details": "cited from earlier work"}, "[10]": {"details": "28 days; cited from earlier work"}, "CHL cells": {"test_system": "CHL cells", "details": "cited from earlier work"}, "[11]": {"test_system": "Seleneastrum capricornutum", "details": "in vivo; cited from earlier work"}, "[12]": {"details": "Severe acute respiratory syndrome coronavirus 2, preliminary, first independent trial"}, "[13]": {"details": "from ppm by standard conversion factors"}}, "note": "Entries after “also recorded” stand apart in the source; their conditions may differ."}
{"smiles": "O=C(OCCOCCOC(=O)c1ccccc1)c1ccccc1", "note": "[90I, diethylene glycol dibenzoate]", "values": [{"measurement": "time within which almost all of the dose was adsorbed, metabolized and excreted in the urine", "setting": "[1]; single oral doses of 50 and 750 mg/kg", "result": "≤ 24", "unit": "h"}, {"measurement": "metabolic pathway", "setting": "[1]; single oral doses", "result": "hydrolysis of the ester bonds to benzoic acid"}, {"measurement": "Water solubility", "setting": "[2]", "result": 193, "unit": "µg/mL"}, {"measurement": "NOEC, activated sludge", "setting": "activated sludge; Table 11", "result": "NOEC ≥100 mg/L,"}, {"measurement": "activated sludge respiration", "setting": "activated sludge; at 100 mg/L", "result": "not inhibited"}, {"measurement": "EC50", "setting": "[3]", "result": 0.02, "unit": "µg/mL"}, {"measurement": "mutagenic potential, bacterial", "setting": "bacterial", "result": "did not demonstrate mutagenic potential"}, {"measurement": "mutagenic potential, mammalian cell", "setting": "mouse lymphoma cells", "result": "did not demonstrate mutagenic potential"}, {"measurement": "IC50", "setting": "CEM-SS cells", "result": "> 100", "unit": "µg/mL"}, {"measurement": "Eye irritation", "setting": "eye of the rabbit", "result": "transient very slight conjunctival irritation only; also recorded: Slight"}, {"measurement": "effects of dietary administration", "setting": "dogs", "result": "No effects"}, {"measurement": "amount of gamma interferon produced", "setting": "gamma interferon", "result": "equivalent to that of the positive control"}, {"measurement": "EC50", "setting": "SARS-CoV-2; [12]", "result": 4100, "unit": "nM"}, {"measurement": "IC50", "setting": "SARS-CoV-2; [12]", "result": 2.8, "unit": "nM"}, {"measurement": "maximum protection", "setting": "SARS-CoV-2; dose curve log(inhibitor) vs. response, SARS-CoV-2 infected cells", "result": "~20", "unit": "%"}, {"measurement": "Log P", "setting": "[4]", "result": 3.04}, {"measurement": "LC50 to fish", "setting": "Pimephales promelas", "result": 3.9, "unit": "µg/mL"}, {"measurement": "LC50 (14 d), earthworm", "setting": "Eisenia foetida; 14 d, Table 11", "result": "d) >1,000 mg/kg"}, {"measurement": "acute toxicity to earthworm", "setting": "Eisenia foetida; 14 days", "result": "greater than 1,000 ppm"}, {"measurement": "Sensitisation", "setting": "guinea pigs", "result": "No allergic skin reaction and Not"}, {"measurement": "Genotoxicity", "setting": "[5]", "result": "Negative"}, {"measurement": "Reproductive toxicity, R", "setting": "rats [6]; Table 10 summary", "result": "R: No"}, {"measurement": "NOAEL for the FO and FI parent animals", "setting": "rats [6]; [13]", "result": 500, "unit": "mg/kg bw/day"}, {"measurement": "NOAEL for the developing offspring", "setting": "rats [6]; [13]", "result": 165, "unit": "mg/kg bw/day"}, {"measurement": "NOEL for reproductive parameters", "setting": "rats [6]; [13]", "result": 500, "unit": "mg/kg bw/day"}, {"measurement": "NOAEL for the FO and FI parent animals, dietary concentration", "setting": "rats [6]; rats, 2-generation, diet", "result": "10,000 ppm"}, {"measurement": "NOAEL for the developing offspring, dietary concentration", "setting": "rats [6]; rats, 2-generation, diet", "result": "3,300 ppm"}, {"measurement": "NOEL for reproductive parameters, dietary concentration", "setting": "rats [6]; rats, 2-generation, diet", "result": "10,000 ppm"}, {"measurement": "EC50", "setting": "HIV", "result": 0.3, "unit": "nM"}, {"measurement": "EC50", "setting": "MDR-27221 HIV strain; Human immunodeficiency virus 1", "result": 3, "unit": "µg/mL"}, {"measurement": "inhibition of the MDR strain", "setting": "MDR-27221 HIV strain; MDR-27221", "result": "strong inhibitory activity"}, {"measurement": "LD50, oral", "setting": "rats [7]", "result": "4,198 mg/kg bw"}, {"measurement": "EC50 (P. putida)", "setting": "Pseudomonas putida; Table 11", "result": "EC50 >10 mg/L"}, {"measurement": "inhibitory effect (1050)", "setting": "Pseudomonas putida; highest testable concentration 10 mg/L", "result": "> 10", "unit": "mg/L"}, {"measurement": "Maternal toxicity", "setting": "rats [8]; Table 10 summary", "result": "1,000 mg/kg bw/day"}, {"measurement": "Reproductive toxicity (NOEL)", "setting": "rats [8]; Table 10 summary", "result": 250, "unit": "mg/kg bw/day"}, {"measurement": "Reproductive toxicity NOAEL", "setting": "rats [8]; Table 10 summary", "result": 500, "unit": "mg/kg bw/day"}, {"measurement": "Reproductive toxicity, D", "setting": "rats [8]; Table 10 summary", "result": "D: Yes"}, {"measurement": "NOAEL for prenatal development", "setting": "rats [8]; rats, diet", "result": 500, "unit": "mg/kg/day"}, {"measurement": "NOEL for fetal growth and development", "setting": "rats [8]; rats, diet", "result": 250, "unit": "mg/kg/day"}, {"measurement": "NOEL for maternal toxicity", "setting": "rats [8]; rats, diet", "result": "1,000 mg/kg/day"}, {"measurement": "EC50 for Daphnia", "setting": "Daphnia", "result": 6.7, "unit": "µg/mL"}, {"measurement": "concentration at which toxicity was observed", "setting": "Vero E6 cells; Vero E6, converted with molecular weight given", "result": "~2500", "unit": "nM"}, {"measurement": "concentration at which toxicity was observed", "setting": "Vero E6 cells; Vero E6, first independent trial, quadruplicate", "result": "~78", "unit": "ng/mL"}, {"measurement": "Skin irritation", "setting": "intact rabbit skin", "result": "No dermal reaction and No"}, {"measurement": "estrogenic activity", "setting": "[9]", "result": "did not exhibit estrogenic activity"}, {"measurement": "Repeat dose, NOAEL", "setting": "rat; Table 10 summary", "result": "1,000 mg/kg bw/day"}, {"measurement": "NOAEL", "setting": "rat; rat, thirteen week, diet", "result": "1,000 mg/kg bw"}, {"measurement": "biodegradation", "setting": "[10]", "result": "93 % of ThOD"}, {"measurement": "clastogenic activity", "setting": "CHL cells", "result": "No response considered to be indicative of clastogenic"}, {"measurement": "growth rate-based EC50 for algae", "setting": "[11]", "result": 11, "unit": "µg/mL"}]}
